# Source: patent US20160368879A1, “PHOTOACID GENERATOR, AND RESIN COMPOSITION FOR PHOTOLITHOGRAPHY” (SAN-APRO LTD., priority 2013, published 2016)
# Key:
# Format in all cases: physicochemical
# [1] = Thermal decomposition temperature (TG/DTA, 2% weight reduction); conditions: point of 2% weight reduction; 10° C./minute from 30° C. to 500° C.; nitrogen atmosphere
# Method: The synthesized photoacid generator was measured for the change in weight under a temperature increasing condition of 10° C./minute from 30° C. to 500° C. under a nitrogen atmosphere using a thermal gravimetric/differential thermal analyzer (TG/DTA 6200, available from Seiko Instruments Inc.), and a point where the weight was reduced by 2% was defined as the thermal decomposition temperature.
# [2] = Solvent solubility (butyl acetate, toluene or PGMEA); conditions: 25° C.
# Method: In a test tube, 0.1 g of the synthesized photoacid generator was placed, and an organic solvent (butyl acetate, toluene or PGMEA) was added thereto in 0.2 g portions under a condition where the temperature was adjusted to 25° C. until the photoacid generator was completely dissolved. In this connection, in the case where the photoacid generator was not completely dissolved even when 20 g of the solvent was added, the photoacid generator was evaluated as one that was not dissolved.
# [3] = Molar extinction coefficient of i-line (365 nm), UV-visible absorbance in acetonitrile; conditions: 0.25 mmol/L in acetonitrile, cell length 1 cm
# Method: The synthesized photoacid generator was diluted to 0.25 mmol/L with acetonitrile, and using an ultraviolet-visible spectrophotometer (UV-2550 available from SHIMADZU CORPORATION), the absorbance in a range of 200 nm to 500 nm was measured with a cell having an optical path length (a cell length) of 1 cm. The molar extinction coefficient of i-line (365 nm) (ε365) was calculated from the following equation.
# [In the equation, […] represents the absorbance at 365 nm.]
Thermal decomposition temperature [1] [°C],Solvent solubility PGMEA [2] [wt %],Solvent solubility Butyl acetate [2] [wt %],Solvent solubility Toluene [2] [wt %],Molar extinction coefficient [3] [L/mol/cm],SMILES
244,19,24,22,1300,"O=C(Oc1cc2c3c(cccc3c1)C(=O)N(OS(=O)(=O)c1c(F)c(F)c(F)c(F)c1F)C2=O)c1c(F)c(F)c(F)c(F)c1F [Example A-32, 3-pentafluorobenzoyloxy-1,8-naphthalimide pentafluorobenzenesulfonate]"
231,3,3,3.5,12000,"CC1(C)C2CCC1(CS(=O)(=O)ON1C(=O)c3cccc4c(OCC(F)(F)C(F)F)ccc(c34)C1=O)C(=O)C2 (stereo not drawn) [Example A-43, 4-(2,2,3,3-tetrafluoro-1-propoxy)-1,8-naphthalimide-(+)-10-camphorsulfonate]"
240,5,7,7,20000,"O=C1c2cccc3c(Sc4ccccc4)ccc(c23)C(=O)N1OS(=O)(=O)C(F)(F)F [Example A-7, 4-phenylthio-1,8-naphthalimide trifluoromethanesulfonate]"
240,4,4.5,7,3000,"O=C(Cc1ccccc1)c1ccc2c3c(cccc13)C(=O)N(OS(=O)(=O)C(F)(F)F)C2=O [Example A-4, 4-phenylacetyl-1,8-naphthalimide trifluoromethanesulfonate]"
243,6,8,7.5,7500,"COc1cc2c3c(cccc3c1)C(=O)N(OS(=O)(=O)C(F)(F)F)C2=O [Example A-8, 3-methoxy-1,8-naphthalimide trifluoromethanesulfonate]"
239,11,14,13,16000,"O=C1c2cccc3c(Oc4cccc(C(F)(F)F)c4)ccc(c23)C(=O)N1OS(=O)(=O)C(F)(F)F [Example A-6, 4-(3-trifluoromethylphenoxy)-1,8-naphthalimide trifluoromethanesulfonate]"
241,20,25,23,1400,"O=C(Oc1cc2c3c(cccc3c1)C(=O)N(OS(=O)(=O)C(F)(F)F)C2=O)c1ccccc1 [Example A-11, 3-benzoyloxy-1,8-naphthalimide trifluoromethanesulfonate]"
230,4,4.5,8,8500,"O=C1c2cccc3c(Br)ccc(c23)C(=O)N1OS(=O)(=O)C(F)(F)F [Example A-20, 4-bromo-1,8-naphthalimide trifluoromethanesulfonate]"
238,4,4.5,7.5,14000,"CCCOc1ccc2c3c(cccc13)C(=O)N(OS(=O)(=O)C(F)(F)F)C2=O [Example A-2, 4-n-propoxy-1,8-naphthalimide trifluoromethanesulfonate]"
250,11,14,8,6200,"CC(C)(C)Cc1cc2c3c(cc(CC(C)(C)C)cc3c1)C(=O)N(OS(=O)(=O)c1c(F)c(F)c(F)c(F)c1F)C2=O [Example A-34, 3,6-dineopentyl-1,8-naphthalimide pentafluorobenzenesulfonate]"
225,3.5,3,5,6000,"O=C1c2cccc3c(Cl)ccc(c23)C(=O)N1OS(=O)(=O)c1c(F)c(F)c(F)c(F)c1F [Example A-39, 4-chloro-1,8-naphthalimide pentafluorobenzenesulfonate]"
241,5,5,5.5,40,"CC1(C)C2CCC1(CS(=O)(=O)ON1C(=O)c3cccc4c(C(F)(F)C(F)(F)C(F)(F)C(F)(F)F)ccc(c34)C1=O)C(=O)C2 (stereo not drawn) [Example A-56, 4-(nonafluorobutyl)-1,8-naphthalimide-(+)-10-camphorsulfonate]"
243,3.2,3,4.5,8500,"O=C1c2cccc3c(Br)ccc(c23)C(=O)N1OS(=O)(=O)c1c(F)c(F)c(F)c(F)c1F [Example A-40, 4-bromo-1,8-naphthalimide pentafluorobenzenesulfonate]"
244,1.3,1.8,1.7,20000,"CC1(C)C2CC[C@@]1(CS(=O)(=O)ON1C(=O)c3cccc4c(Sc5ccccc5)ccc(c34)C1=O)C(=O)C2 [Example A-47, 4-phenylthio-1,8-naphthalimide-(+)-10-camphorsulfonate]"
245,8,8,7.5,6500,"CC(C)(C)c1cc2c3c(cc(C(C)(C)C)cc3c1)C(=O)N(OS(=O)(=O)C(F)(F)F)C2=O [Example A-13, 3,6-di-tert-butyl-1,8-naphthalimide trifluoromethanesulfonate]"
245,6,6.5,6,6500,"CC(C)(C)c1cc2c3c(cc(C(C)(C)C)cc3c1)C(=O)N(OS(=O)(=O)c1c(F)c(F)c(F)c(F)c1F)C2=O [Example A-33, 3,6-di-tert-butyl-1,8-naphthalimide pentafluorobenzenesulfonate]"
230,18,25,23,1500,"CCCCC(CC)C(=O)Oc1cc2c3c(cccc3c1)C(=O)N(OS(=O)(=O)c1c(F)c(F)c(F)c(F)c1F)C2=O (stereo not shown) [Example A-29, 3-(2-ethylhexanoyloxy)-1,8-naphthalimide pentafluorobenzenesulfonate]"
